The values that follow come from ChEMBL document CHEMBL4270604, “Hedgehog pathway inhibitors of the acylthiourea and acylguanidine class show antitumor activity on colon cancer in vitro and in vivo” (Eur J Med Chem, 2018).

As a reminder, the IC50 is the point on the concentration scale where inhibition reaches its midpoint. Usually inhibition stands for the share of the control response that was lost under treatment. By half-life is commonly meant the time in which the quantity being followed falls by half. Low values mean fast loss, high ones slow loss. The term Cmax denotes the highest concentration seen after dosing. One may read the AUC(0-t) as the area under the concentration-time curve up to a stated or last time point. A higher AUC(0-t) goes with more exposure. A word on the Papp B→A: it is the apparent permeability from the basolateral to the apical side of a cell layer.

Data set [1] can be described thus: Inhibition of hedgehog signaling pathway-mediated differentiation of mouse C3H10T1/2 cells assessed as decrease in SAG-induced ALP activity after 6 days by chemiluminescence-based assay. To be noted: C3H 10T1/2, 144 h.
Data set [2] concerns LS180. Kind of data set: Antiproliferative activity against human LS180 cells after 72 hrs by sulforhodamine-B assay. It counts as functional, cell-based. The following applies: for IC50: LS180, 72 h. A general note: Sulforhodamine B stains cellular protein and so reports cell mass.
In data set [3] the test system is LS180. Kind of data set: Antitumor activity against human LS180 cells xenografted in athymic nude mouse assessed as tumor growth inhibition at 200 mg/kg, po administered 5 days per week for 2 weeks relative to vehicle-treated control. In kind it is functional. The following applies: read-out: TGI. In general terms: In xenograft studies the graft and the host belong to different species.

For data set [4], the system named is Mus musculus. Kind of data set: Toxicity in athymic nude mouse xenografted with human LS180 cells assessed as body weight loss at 200 mg/kg, po administered 5 days per week for 2 weeks. In kind it is organism-based. The following applies: in vivo.
Another data set is filed under the species Homo sapiens. Kind of data set: Substrate activity at recombinant human P-gp in membrane fraction assessed as increase in ATPase activity at 10 uM by luminescent P-gp-Glo assay relative to control.
In data set [5] the target is T1, CYP3A4 (Homo sapiens, UniProt P08684). The data set can be described thus: Inhibition of recombinant human CYP3A4 expressed in insect cell microsomes at 1 uM using Luciferin-IPA as substrate preincubated for 10 mins followed by NADPH addition measured after 10 mins by luminometric method. It counts as ADME. To be noted: probe Luciferin-IPA.
T1 sequence (P08684 whole entry): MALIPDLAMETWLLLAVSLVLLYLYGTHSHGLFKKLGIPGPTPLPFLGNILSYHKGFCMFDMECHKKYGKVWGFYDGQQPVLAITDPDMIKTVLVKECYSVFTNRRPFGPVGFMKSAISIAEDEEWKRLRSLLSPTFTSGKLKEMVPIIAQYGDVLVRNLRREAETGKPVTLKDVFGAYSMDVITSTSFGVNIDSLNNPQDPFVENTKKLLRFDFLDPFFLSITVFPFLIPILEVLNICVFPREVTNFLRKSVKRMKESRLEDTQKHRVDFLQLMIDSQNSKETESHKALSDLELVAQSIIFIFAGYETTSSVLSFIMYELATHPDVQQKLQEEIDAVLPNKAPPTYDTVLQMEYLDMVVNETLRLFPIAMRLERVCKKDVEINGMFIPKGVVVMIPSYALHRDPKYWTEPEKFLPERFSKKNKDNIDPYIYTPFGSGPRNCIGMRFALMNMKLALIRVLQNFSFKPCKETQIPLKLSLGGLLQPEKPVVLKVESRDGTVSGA
In a further data set the target is T2, CYP1A2 (Homo sapiens, UniProt P05177).
T2 sequence (P05177 whole entry): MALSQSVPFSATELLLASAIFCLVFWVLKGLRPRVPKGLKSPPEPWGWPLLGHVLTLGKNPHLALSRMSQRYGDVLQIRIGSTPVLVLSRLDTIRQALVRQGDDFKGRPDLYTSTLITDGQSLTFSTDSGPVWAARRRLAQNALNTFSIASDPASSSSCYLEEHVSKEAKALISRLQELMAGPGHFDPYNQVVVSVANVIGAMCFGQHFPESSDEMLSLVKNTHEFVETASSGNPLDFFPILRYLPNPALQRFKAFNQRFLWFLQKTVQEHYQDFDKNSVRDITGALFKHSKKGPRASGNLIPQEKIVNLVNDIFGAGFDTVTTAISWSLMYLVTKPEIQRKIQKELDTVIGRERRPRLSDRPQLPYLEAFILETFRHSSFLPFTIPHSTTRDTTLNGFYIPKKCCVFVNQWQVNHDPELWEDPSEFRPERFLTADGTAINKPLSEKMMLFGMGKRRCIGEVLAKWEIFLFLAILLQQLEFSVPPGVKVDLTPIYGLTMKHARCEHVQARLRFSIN
Kind of data set: Inhibition of recombinant human CYP1A2 expressed in insect cell microsomes at 5 uM using Luciferin-ME as substrate preincubated for 10 mins followed by NADPH addition measured after 30 mins by luminometric method. It counts as ADME. To be noted: probe Luciferin-ME.

In data set [6] the target is T1, CYP3A4. The data set can be described thus: Inhibition of recombinant human CYP3A4 expressed in insect cell microsomes at 10 uM using Luciferin-IPA as substrate preincubated for 10 mins followed by NADPH addition measured after 10 mins by luminometric method. In kind it is ADME. The following applies: probe Luciferin-IPA.
Another data set concerns the target CYP2C9 (Homo sapiens, UniProt P11712). Kind of data set: Inhibition of recombinant human CYP2C9 expressed in insect cell microsomes at 5 uM using Luciferin-H as substrate preincubated for 30 mins followed by NADPH addition measured after 30 mins by luminometric method. It counts as ADME. The following applies: probe Luciferin-H.
Data set [7] in a line: Half life in cryopreserved mouse liver microsomes at 1 uM after 120 mins by HPLC-MS/MS analysis. It counts as ADME, microsome. (Liver microsomes are vesicles of endoplasmic reticulum, rich in cytochrome P450 enzymes.)
Data set [8] in a line: Intrinsic clearance in mouse liver […] per million cells at 1 uM after 120 mins by HPLC-MS/MS analysis. The following applies: 2 h. In kind it is ADME.
A short description of data set [9]: Intrinsic clearance in mouse liver microsomes at 1 uM after 120 mins by HPLC-MS/MS analysis. It counts as ADME, microsome. The following applies: read-out: CLH.
Data set [10] in a line: Drug recovery in mouse plasma at 37 degC after 120 mins by HPLC-MS/MS analysis. It counts as ADME, cell-free. To be noted: read-out: Drug recovery.
Data set [11] can be described thus: Cmax in CD1 mouse at 200 mg/kg, po administered as single dose by HPLC-MS/MS analysis. It counts as ADME, organism-based. On the set-up: dose 200 mg/kg, route oral. The following applies: in vivo.
Data set [12] is described as follows: AUClast in CD1 mouse at 200 mg/kg, po administered as single dose by HPLC-MS/MS analysis. It counts as ADME, organism-based. More on the design: dose 200 mg/kg, time 0 - last, route oral. The following applies: in vivo.
For data set [13], the system named is Mus musculus. Kind of data set: Tlast in CD1 mouse at 200 mg/kg, po administered as single dose by HPLC-MS/MS analysis. The following applies: in vivo. In kind it is ADME, organism-based.
Data set [14] in a line: Apparent terminal volume of distribution in CD1 mouse at 200 mg/kg, po administered as single dose by HPLC-MS/MS analysis. To be noted: in vivo, read-out: Vz/F. It counts as ADME, organism-based.
Data set [15] can be described thus: Stability of the compound in mouse deproteinized plasma at 37 degC after 120 mins by HPLC-MS/MS analysis. The following applies: 2 h. In kind it is ADME, cell-free.
The nature of data set [16]: in vitro. The following applies: human, Caco-2.
Description: Apparent permeability of the compound from basolateral to apical side in human Caco2 cells after 120 mins by LC-MS/MS analysis
A short description of data set [17]: in vitro. The following applies: human, Caco-2. This is another data set of the same source.
Description: Apparent permeability of the compound from basolateral to apical side in human Caco2 cells assessed as drug recovery after 120 mins by LC-MS/MS analysis
The nature of data set [18]: Drug recovery in mouse deproteinized plasma at 37 degC after 120 mins by HPLC-MS/MS analysis. It counts as ADME, cell-free. The following applies: read-out: Drug recovery.

Sequence of CYP2C9 (P11712 whole entry): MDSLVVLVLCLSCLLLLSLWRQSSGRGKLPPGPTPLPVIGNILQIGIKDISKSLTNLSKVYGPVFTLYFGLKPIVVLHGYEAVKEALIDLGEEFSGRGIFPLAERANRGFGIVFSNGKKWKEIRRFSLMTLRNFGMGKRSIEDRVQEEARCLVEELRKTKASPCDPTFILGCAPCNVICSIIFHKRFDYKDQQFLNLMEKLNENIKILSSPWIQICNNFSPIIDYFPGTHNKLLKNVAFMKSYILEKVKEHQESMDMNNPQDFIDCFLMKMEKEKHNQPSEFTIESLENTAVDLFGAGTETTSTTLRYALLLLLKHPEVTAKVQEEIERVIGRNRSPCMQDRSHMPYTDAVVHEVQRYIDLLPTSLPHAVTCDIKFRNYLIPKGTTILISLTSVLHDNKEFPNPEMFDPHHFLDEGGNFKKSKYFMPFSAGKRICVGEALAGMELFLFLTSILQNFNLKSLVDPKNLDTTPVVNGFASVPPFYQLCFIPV

Take `COc1cc(C(=O)NC(=N)Nc2ccc(C)c(NC(=O)c3ccc(CCc4ccccc4)cc3)c2)cc(OC)c1OC.Cl`: the IC50 in data set [1] came to 40 nM; in the data set with LS180 [2] it was 2.5 µM. Moreover, the Activity entry was “Dose-dependent effect” in the data set with LS180 [2] and “Non-Toxic” with Mus musculus [4]. The inhibition in vivo at 200 mg/kg in the data set with LS180 [3] is 48%. The fold change (FC) in the data set filed under Homo sapiens worked out at 1.4. Also, the inhibition at 10 min, 1 µM on CYP3A4 [5] was 76%. Further, the inhibition at 0.5 h, 5 µM on CYP1A2 turned out to be 43%; at CYP2C9, 81%. The inhibition at 10 min, 10 µM at CYP3A4 [6] was 92%. Moreover, in data set [7], the half-life at 1 µM worked out at 8.07 min. This compound displayed a CLH in data set [8] of 286 µL/min. In data set [9], the CLint scaled at 1 µM stood at 756 mL/min/kg. For the same compound, the remaining at 2 h in [10] is 81.3%. This compound also showed a Cmax in data set [11] of 11000 ng/mL. In data set [12], this compound displayed an area under the curve AUC(0-t) of 137 µg·h/mL. In the data set with Mus musculus [13], the Tlast was 24 h. Besides, the Vd/F in [14] was 5.28 L/kg. For the same compound, the Stability result in data set [15] is reported as “Stable”. The same compound showed a basolateral-to-apical permeability (Papp B→A) at 2 h in “in vitro [16]” of 0.737 ×10⁻⁶ cm/s. In “in vitro [17]”, this compound yielded a recovery at 2 h of 44.6%.

Consider `COc1cc(C(=O)NC(=N)Nc2ccc(C)c(NC(=O)c3ccc(-c4ccc(F)cc4)cc3)c2)cc(OC)c1OC.Cl`, for which the half-inhibitory concentration (IC50) in data set [1] turned out to be 70 nM; in the data set with LS180 [2], 8.1 µM. Further, the Activity result with LS180 [2] was “Dose-dependent effect”. Further, the fold change (FC) in the data set listed under Homo sapiens is 2.3. Besides, the inhibition at 10 min, 1 µM at CYP3A4 [5] was determined as 52%. Moreover, the values for the inhibition at 0.5 h, 5 µM at CYP1A2 and on CYP2C9 were 58% and 76%, respectively. Further, the inhibition at 10 min, 10 µM on CYP3A4 [6] was determined as 82%. In addition, the remaining at 2 h in data set [10] was 66.6%. Also, the Cmax in data set [11] amounted to 17300 ng/mL. Also, the AUC(0-t) in data set [12] turned out to be 223 µg·h/mL. The same compound showed a Tlast with Mus musculus [13] of 24 h. Further, the Vd/F in data set [14] was found to be 3.32 L/kg. Also, the Stability entry in data set [15] was “Stable”. For the same compound, in the data set “in vitro [16]”, the Papp B→A at 2 h was 0.37 ×10⁻⁶ cm/s. The compound also displayed a recovery at 2 h in “in vitro [17]” of 30.6%.

`COc1cc(C(=O)NC(=N)Nc2ccc(C)c(NC(=O)c3ccc(-c4ccccc4)cc3)c2)cc(OC)c1OC.Cl`: the concentration for half-maximal inhibition (IC50) was determined as 60 nM in [1] and 9.7 µM in the data set on LS180 [2]. The Activity result in the data set on LS180 [2] was “Dose-dependent effect”. In addition, the fold change (FC) in the data set listed under Homo sapiens came to 4.8. Also, the inhibition at 10 min, 1 µM at CYP3A4 [5] was determined as 38%. Also, the inhibition at 0.5 h, 5 µM at CYP1A2 was found to be 64%; at CYP2C9 it was 71%. Moreover, the inhibition at 10 min, 10 µM at CYP3A4 [6] turned out to be 87%. For the same compound, the remaining at 2 h stood at 72.1% in data set [10] and 83% in data set [18]. This compound also showed a Cmax in data set [11] of 29600 ng/mL. This compound yielded an AUC(0-t) in data set [12] of 237 µg·h/mL. This compound also showed a Tlast with Mus musculus [13] of 24 h. In addition, in data set [14], the Vd/F was found to be 2.96 L/kg. In the data set “in vitro [16]”, the Papp B→A at 2 h was found to be 0.651 ×10⁻⁶ cm/s. In the data set “in vitro [17]”, this compound displayed a recovery at 2 h of 31.9%.
